Data set [1] deals with inbred mouse strains. As for the experimental part:
For the genetic analysis, the susceptibility of a panel of 16 inbred mouse strains to developing liver toxicity after a single 300 mg/kg intraperitoneal dose of acetaminophen was assessed. This dose is known to cause liver toxicity in mice. During the 24 hour period after dosing, serum alanine aminotransferase (ALT), morbidity and liver histochemistry were assessed as indices of liver toxicity.
Animal husbandry and drug treatment. Seven to eight week old male mice were obtained from Jackson Laboratory (Bar Harbor, Me.) and acclimatized for an additional week before use. The following 16 inbred mouse strains were studied: SJL, LGJ, BALB/cJ, DBA/2J, A/J, AKR/J, A/HeJ, 129/SvJ, B10.D2-H2/oSNJ, C57BL/6J, NZW/LaCJ, NZB/BInJ, MRL/MpJ, C3H/HeJ, LP/J, SM/J. The mice were housed under pathogen-free environment and provided food and water ad libitum with a 12h: 12h light: dark cycle until experimental use. Before each experiment, food was withheld from the animals overnight (greater than sixteen hours) to uniformly deplete hepatic glutathione stores. All mice were administered a single 300 mg/kg intraperitoneal dose of freshly prepared acetaminophen (Voigt Global Distribution Inc.) suspended in PBS (pH 7.4), and were allowed free access to food and water after treatment. The mice were euthanized by CO2 inhalation to collect blood samples and liver tissues at zero, three, and six hours after dosing. The remaining mice were monitored for 48 hours for the occurrence of acetaminophen-induced deaths. Blood samples were withdrawn by cardiac puncture and placed in EDTA-coated tubes, and plasma samples were isolated by centrifugation. Alanine aminotransferase (ALT) activity was measured at the Marshfield Clinic Laboratories (Marshfield, Wis.). Liver tissues were removed immediately and cut into two sections. The smaller section was fixed in buffered formalin, processed by standard histological techniques, stained with hematoxylin and eosin, and examined for histopathologic evidence of liver injury. The remaining sections were snap-frozen in liquid nitrogen and stored at −80° C. for gene expression and metabolite analysis.

Data set [2] deals with hepatic glutathione. The data set is described as follows: Endogenous liver metabolite profiling by 1H-13C two-dimensional NMR after acetaminophen exposure. The data set is classed as in vivo, mouse. The settings on record: three hours after acetaminophen administration. As to the method: Analysis of acetaminophen-induced endogenous metabolite and gene expression changes. Endogenous metabolites and gene expression changes in liver were examined at 0, 3 and 6 hours after acetaminophen exposure in the resistant (SJL) and three sensitive strains (DBA, SMJ and C57) strains in order to identify the pathways and genes contributing to resistance to acetaminophen-induced liver toxicity. The endogenous metabolites were profiled using ^1H—^13C two-dimensional-NMR analysis. Over 400 metabolite peaks were quantified and analyzed by this method, and principal component analysis (PCA) (Duda, 2001, Pattern Classification, John Wiley & Sons, Inc., pp. 568-569, which is hereby incorporated by reference herein) was used to identify metabolite peaks that distinguished the response of the sensitive strain from the three resistant strains. […]
Therefore, the metabolites within the peaks that distinguished the response of the resistant strain from the three sensitive strains at zero and three hours after drug exposure were identified. […] Using resonance assignments and confirmation experiments with purified compounds, the identity of eight of these nine peaks was determined. […]
NMR spectra were recorded at 300°K on a Bruker Avance 600 MHz spectrometer operating at ^1H frequency of 599.99 MHz and ^13C frequency of 150.87 MHz using a 3 mm Nalorac microprobe with z-axis pulsed-field gradient. […]

In data set [3] the test system is Ddit3, Dnajb1, and Gadd45ga. The data set is described as follows: Hepatic gene expression profiles (microarrays) after acetaminophen treatment. The data set is classed as in vivo, mouse. As to conditions: liver; SJL and three sensitive strains. The source says:
Differential susceptibility to a hepatotoxic dose of acetaminophen could result from differences in the rate of production of the reactive quinone metabolite that causes liver toxicity. […] Thus, a hepatotoxic dose of acetaminophen induces the formation of protein adducts and activates the DNA damage response in resistant SJL mice to the same extent as in the susceptible strains.
Therefore, the metabolites within the peaks that distinguished the response of the resistant strain from the three sensitive strains at zero and three hours after drug exposure were identified. […] Using resonance assignments and confirmation experiments with purified compounds, the identity of eight of these nine peaks was determined. Three peaks were assigned to glutathione. […] Five other metabolite peaks were assigned to alanine, lactate and betaine. Microarrays were simultaneously used to analyze gene expression in liver obtained from these four strains before (zero hr) and three hours after acetaminophen administration. […] This large number of differentially expressed genes limited the utility of analyzing the gene expression data by itself. However, an integrated analysis of the gene expression and metabolite data provided a more restricted set of pathways and genes to consider. […]

Data set [4] deals with hepatic acetaminophen-protein adducts. As to conditions: resistant SJL strain compared with sensitive C57B6 strain; previously shown; cited from earlier work.

The mortality is the share of the test organisms that died. The low end stands for more survivors, the high end for fewer survivors.

Molecules are shown by their SMILES. Where two headings read alike, the source gives them in different places.

In the case of `CC(=O)Nc1ccc(O)cc1` [acetaminophen], the mortality result in data set [1] (15 sensitive strains, single 300 mg/kg intraperitoneal dose) is listed as “mortality in a significant percent of the mice”; in data set [1] (C57B6 mice, within six hours after dosing), 100%; in data set [1] (SJL mice, single 300 mg/kg intraperitoneal dose) it was “no mortality”; in data set [1] (three sensitive strains (C57BL6, DBA/2, SMJ), within forty-eight hours after treatment), “at least 60%”. In addition, the figures for the “time at which mortality occurred after dosing” value in data set [1] (DBA/2 strain) and in data set [1] (SMJ strain) were 48 h and 24 h, respectively. In addition, the survival result in data set [1] (SJL mice, within forty-eight hours after treatment) is given as “all SJL mice survived”. The “increase in serum ALT” value in data set [1] (mouse, in vivo, ip, 300 mg/kg) is “much smaller and transient increase”. Also, the hepatic glutathione concentration entry in data set [2] (SJL strain) was “maintained its hepatic glutathione concentration”. For the same compound, in data set [2] (three sensitive strains), the hepatic glutathione levels result is recorded as “significantly decreased”. In data set [3], the “level of expression of three DNA damage response genes (Ddit3, Dnajb1, Gadd45ga)” value is reported as “increased to the same extent in all four strains”. The “hepatic acetaminophen-protein adducts generated” value in data set [4] was “same amount of hepatic acetaminophen-protein adducts”.

Source of the values: US7869664B2, “Systems and methods for alignment of objects in images” (priority 2007, dated 2011).
